This is an account of results in PMC12396409, “Screening and hit evaluation of a microbial metabolite library against the pathogenic Plasmodium falciparum and Toxoplasma gondii parasites” (International Journal for Parasitology: Drugs and Drug …, 2025).

Like-named read-outs stand apart in the source and are kept apart here.

Assay [1] concerns P. falciparum 3D7 parasites. Nature of the assay: P. falciparum growth inhibition assay, 1-cycle (72 h treatment), SYBR DNA staining (library screen at 2 μg/mL and dose-response). It counts as cell-based, Plasmodium falciparum. Conditions: library screen at 2 μg/mL, 72 h, % growth; for activity at 2 µg/mL: Plasmodium falciparum.
The test system of assay [2] is P. falciparum 3D7 parasites. Nature of the assay: P. falciparum growth inhibition assay, 2-cycle (120 h treatment), delayed-death screen and dose-response. It counts as cell-based, Plasmodium falciparum. Conditions: library screen at 2 μg/mL, 120 h, % growth; for activity at 2 µg/mL: Plasmodium falciparum.
Assay [3] has as its system T. gondii RH strain (RH-Tub-eYFP) tachyzoites. Nature of the assay: microbe, parasite or virus in culture. It counts as cell-based, Toxoplasma gondii. Conditions: library screen at 2 μg/mL, 72 h, % growth; for percent parasite growth at 2 µg/mL: Toxoplasma gondii.
Setting [4] is: replicate 1, read-out: Tg_72h_%Growth_Rep1.
Setting [5] is: replicate 2, read-out: Tg_72h_%Growth_Rep2.

In assay [1] (replicate 1), `CO[C@H]1C[C@H](O[C@H]2[C@H](C)O[C@@H](O[C@@H]3/C(C)=C/C[C@@H]4C[C@@H](C[C@]5(C=C[C@H](C)[C@@H](C6CCCCC6)O5)O4)OC(=O)[C@H]4C=C(C)[C@@H](O)[C@H]5OC/C(=C\C=C\[C@@H]3C)[C@@]45O)C[C@@H]2OC)O[C@@H](C)[C@@H]1O` [Doramectin, epi-] registered a Pf_72h_%Growth_Rep1 of 8.06%. In assay [1] (replicate 2), this molecule came in with a Pf_72h_%Growth_Rep2 of 18.63%. Besides, in assay [2] (replicate 1), the Pf_120h_%Growth_Rep1 is recorded as -3.39%. Also, the Pf_120h_%Growth_Rep2 in assay [2] (replicate 2) was determined as 23.35%. Moreover, the Tg_72h_%Growth_Rep1 in assay [3] (replicate 1) came out at 72.64%. In assay [3] (replicate 2), the Tg_72h_%Growth_Rep2 came out at 83.42%.
In assay [1] (replicate 1), `CO[C@H]1C[C@H](O[C@H]2[C@H](C)O[C@@H](O[C@@H]3/C(C)=C/C[C@@H]4C[C@@H](C[C@]5(C=C[C@H](C)[C@@H](C6CCCCC6)O5)O4)OC(=O)[C@@H]4C=C(C)[C@@H](O)[C@H]5OC/C(=C\C=C\[C@@H]3C)[C@]54O)C[C@@H]2OC)O[C@@H](C)[C@@H]1O` [Doramectin] displayed a Pf_72h_%Growth_Rep1 of 86.87%. The same molecule displayed a Pf_72h_%Growth_Rep2 in assay [1] (replicate 2) of 79.49%. For the same molecule, the Pf_120h_%Growth_Rep1 in assay [2] (replicate 1) is given as 100.88%. Moreover, the Pf_120h_%Growth_Rep2 in assay [2] (replicate 2) is 96.33%. Moreover, the Tg_72h_%Growth_Rep1 in assay [3] (replicate 1) was determined as 127.97%. The molecule further returned a Tg_72h_%Growth_Rep2 in assay [3] (replicate 2) of 102.84%.
For `C[C@@H](O)[C@H]1C(=O)N2C(C(=O)O)=C(S[C@@H]3CN[C@H](CNS(N)(=O)=O)C3)[C@H](C)[C@H]12` [Doripenem], the activity at 2 µg/mL in assay [1] (3D7, replicate 1, read-out: Pf_72h_%Growth_Rep1) was 81.9%; in assay [1] (3D7, replicate 2, read-out: Pf_72h_%Growth_Rep2), 66.8%; in assay [2] (3D7, replicate 1, read-out: Pf_120h_%Growth_Rep1) it was 85.1%; in assay [2] (3D7, replicate 2, read-out: Pf_120h_%Growth_Rep2), 121%. The values for the percent parasite growth at 2 µg/mL in assay [3] (setting [4]) and in assay [3] (setting [5]) were 119% and 89.3%, respectively.
As for `COc1cccc2c1C(=O)c1c(O)c3c(c(O)c1C2=O)C[C@@](O)(C(=O)CO)C[C@@H]3O[C@H]1C[C@H](N)[C@H](O)[C@H](C)O1` [Doxorubicin], the activity at 2 µg/mL in assay [1] (3D7, 72 h, replicate 1, read-out: Pf_72h_%Growth_Rep1) is 51.3%; in assay [1] (3D7, 72 h, replicate 2, read-out: Pf_72h_%Growth_Rep2), 57.9%; in assay [2] (3D7, 120 h, replicate 1, read-out: Pf_120h_%Growth_Rep1), 15.8%; in assay [2] (3D7, 120 h, replicate 2, read-out: Pf_120h_%Growth_Rep2), 35.7%. The percent parasite growth at 2 µg/mL was determined as 214% in assay [3] (setting [4]) and 123% in assay [3] (setting [5]).
`CC1(C)CCC[C@]2(C)[C@@H](CO)C(CO)=CC[C@@H]12` [Drimendiol] registered a Pf_72h_%Growth_Rep1 in assay [1] (replicate 1) of 88.42%. This molecule yielded a Pf_72h_%Growth_Rep2 in assay [1] (replicate 2) of 85.66%. Moreover, in assay [2] (replicate 1), the Pf_120h_%Growth_Rep1 came to 96.59%. For the same molecule, the Pf_120h_%Growth_Rep2 in assay [2] (replicate 2) is listed as 92.13%. Besides, the Tg_72h_%Growth_Rep1 in assay [3] (replicate 1) came to 182.34%. In assay [3] (replicate 2), this molecule gave a Tg_72h_%Growth_Rep2 of 100.93%.
`CC1=CC[C@H]2C(C)(C)CCC[C@]2(C)[C@H]1CO` [Drimenol] showed a Pf_72h_%Growth_Rep1 in assay [1] (replicate 1) of 88.25%. The molecule further had a Pf_72h_%Growth_Rep2 in assay [1] (replicate 2) of 89.37%. In assay [2] (replicate 1), the Pf_120h_%Growth_Rep1 is recorded as 92.79%. Besides, the Pf_120h_%Growth_Rep2 in assay [2] (replicate 2) is listed as 93.83%. The molecule also gave a Tg_72h_%Growth_Rep1 in assay [3] (replicate 1) of 153.93%. In addition, the Tg_72h_%Growth_Rep2 in assay [3] (replicate 2) stood at 98.02%.
Take `C=C1CC[C@H]2C(C)(C)CCC[C@]2(C)[C@H]1C[C@@]12C[C@H]3C(=O)N[C@@H](CC(C)C)C(=O)N3[C@@H]1Nc1ccccc12` [Drimentine A]: in assay [1] (replicate 1), the Pf_72h_%Growth_Rep1 was 31.67%. In assay [1] (replicate 2), this molecule gave a Pf_72h_%Growth_Rep2 of 47.87%. In assay [2] (replicate 1), the Pf_120h_%Growth_Rep1 is 26.95%. The same molecule had a Pf_120h_%Growth_Rep2 in assay [2] (replicate 2) of 40.06%. In addition, the Tg_72h_%Growth_Rep1 in assay [3] (replicate 1) came to 101.23%. This molecule yielded a Tg_72h_%Growth_Rep2 in assay [3] (replicate 2) of 80.15%.
Regarding `C=C1CC[C@H]2C(C)(C)CCC[C@]2(C)[C@H]1C[C@@]12C[C@H]3C(=O)N4CCC=C4C(=O)N3[C@@H]1Nc1ccccc12` [Drimentine B], the Pf_72h_%Growth_Rep1 in assay [1] (replicate 1) was determined as 74.87%. This molecule also returned a Pf_72h_%Growth_Rep2 in assay [1] (replicate 2) of 73.00%. Besides, in assay [2] (replicate 1), the Pf_120h_%Growth_Rep1 is listed as 84.09%. The same molecule displayed a Pf_120h_%Growth_Rep2 in assay [2] (replicate 2) of 80.10%. For the same molecule, the Tg_72h_%Growth_Rep1 in assay [3] (replicate 1) was 108.85%. This molecule also came in with a Tg_72h_%Growth_Rep2 in assay [3] (replicate 2) of 84.36%.
